Measurements as given in patent US6737383B1, “Herbicidal oxadiazolidines” (priority 1999, dated 2004).

Key:
giant foxtail = assay: Test B pre/postemergence giant foxtail; format: in vivo, Setaria faberii
Summary of the method: (§1)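 Response is a visual 0-to-10 score relative to untreated plants, where 0 means no effect and 10 means complete control, taken twelve to sixteen days after application. Treatments went onto soil at planting and onto foliage of 1- to 4-leaf plants, using a surfactant-containing non-phytotoxic solvent.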

morningglory = assay: Test B pre/postemergence morningglory; format: in vivo, Ipomoea hederacea
Summary of the method: as §1

rice = assay: Test B flood test rice; format: in vivo, Oryza sativa
Summary of the method: (§2)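 Flood test on plants grown to the 2-leaf stage; treated plants kept in greenhouse twelve to sixteen days, then visually rated against controls on a 0 (no effect) to 10 (complete control) scale.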

duck salad = assay: Test B flood test duck salad; format: in vivo, Heteranthera limosa
Summary of the method: as §2

common pursiane = assay: Test D common purslane; format: in vivo, Portulaca oleracea; settings: Preemergence, 0 to 100 scale
Summary of the method: (§3)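 Visual injury ratings, 0 = no injury to 100 = complete control, taken 14 to 21 days after treatment. Test chemicals were in a surfactant-containing non-phytotoxic solvent; preemergence treatments went onto the sandy loam surface of seeded greenhouse pots within one day of sowing.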

goosegrass = assay: Test D goosegrass; format: in vivo, Eleusine indica; settings: Preemergence, 0 to 100 scale
Summary of the method: as §3

purple nutsedge = assay: Test D purple nutsedge; format: in vivo, Cyperus rotundus; settings: Preemergence, 0 to 100 scale
Summary of the method: as §3

sandbur = assay: Test D sandbur; format: in vivo, Cenchrus echinatus; settings: Preemergence, 0 to 100 scale
Summary of the method: as §3

winter wheat [1] = assay: Test E winter wheat; format: in vivo, Triticum aestivum; settings: Postemergence
Summary of the method: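 Compounds formulated in non-phytotoxic solvent mixture with surfactant; for postemergence, sprayed on plants at 1- to 4-leaf stage grown in 60:40 sandy loam/greenhouse potting mix. Kept in greenhouse ~21 to 28 days, then visually rated against untreated controls.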

blackgrass = assay: Test E blackgrass; format: in vivo, Alopecurus myosuroides; settings: Preemergence
green foxtail = assay: Test E green foxtail; format: in vivo, Setaria viridis; settings: Preemergence
Italian ryegrass = assay: Test E Italian ryegrass; format: in vivo, Lolium multiflorum; settings: Preemergence
winter wheat [2] = assay: Test E winter wheat; format: in vivo, Triticum aestivum; settings: Preemergence
wild oat = assay: Test E wild oat; format: in vivo, Avena fatua; settings: Preemergence, 0 to 100 scale where 0 is no effect and 100 is complete control
winter barley = assay: Test E winter barley; format: in vivo, Hordeum vulgare; settings: Preemergence
[3] = Postemergence, Rate 125 g/ha, scale of 0 to 10 where 0 is no effect and 10 is complete control
[4] = Postemergence, Rate 250 g/ha, scale 0 to 10, 0 no effect, 10 complete control
[5] = Preemergence, Rate 62 g/ha, scale 0 to 10 (0 no effect, 10 complete control)
[6] = Preemergence, Rate 125 g/ha, scale 0 to 10 (0 no effect, 10 complete control)
[7] = Preemergence, Rate 250 g/ha, scale of 0 to 10 where 0 is no effect and 10 is complete control
[8] = Preemergence, Rate 500 g/ha, scale 0 to 10 (0 no effect, 10 complete control)
[9] = Rate 62 g/ha, Postemergence, scale of 0 to 10 where 0 is no effect and 10 is complete control
[10] = Rate 500 g/ha, Postemergence, scale 0 to 10, 0 no effect, 10 complete control
[11] = Rate 250 g/ha, headed Pre-emergence (flood test species), scale 0 to 10 (0 no effect, 10 complete control)
[12] = Rate 500 g/ha, headed Pre-emergence (flood test species), scale 0 to 10 (0 no effect, 10 complete control)
[13] = Rate 1000 g/ha, Pre-emergence (as headed), scale 0 to 10
[14] = Rate 2000 g/ha, Pre-emergence (as headed), scale 0 to 10
[15] = Rate 16 g/ha, 0 no injury, 100 complete control
[16] = Rate 32 g/ha, 0 no injury, 100 complete control
[17] = Rate 64 g/ha, 0 no injury, 100 complete control
[18] = Rate 125 g/ha, 0 no injury, 100 complete control
[19] = Rate 500 g/ha, 0 to 100 scale where 0 is no effect and 100 is complete control
[20] = Rate 1000 g/ha, 0 to 100 scale where 0 is no effect and 100 is complete control

CC(C)N(C(=O)n1oc(=O)n(Cc2cccs2)c1=O)c1ccccc1 [Compound 103] was tested, and the “Giant foxtail plant response rating” value (giant foxtail; [3]) was 1, the “Giant foxtail plant response rating” value (giant foxtail; [4]) was 3 and the “Giant foxtail plant response rating” value (giant foxtail; [5]) was 8. For the same molecule, the “Plant response rating, Giant foxtail” value (giant foxtail; [6]) was 9, the “Plant response rating, Giant foxtail” value (giant foxtail; [7]) was 9 and the “Giant foxtail plant response rating” value (giant foxtail; [8]) was 9. For the same molecule, the “Giant foxtail plant response rating” value (giant foxtail; [9]) was 0, the “Giant foxtail plant response rating” value (giant foxtail; [10]) was 7 and the “Morningglory plant response rating” value (morningglory; [3]) was 10. For the same molecule, the “Morningglory plant response rating” value (morningglory; [4]) was 10, the “Morningglory plant response rating” value (morningglory; [5]) was 0 and the “Plant response rating, Morningglory” value (morningglory; [6]) was 0. The “Plant response rating, Morningglory” value (morningglory; [7]) was 0, the “Morningglory plant response rating” value (morningglory; [8]) was 0 and the “Morningglory plant response rating” value (morningglory; [9]) was 8. For the same molecule, the “Morningglory plant response rating” value (morningglory; [10]) was 10, the “Rice plant response rating” value (rice; [11]) was 0 and the “Plant response rating, Rice” value (rice; [12]) was 0. The “Rice plant response rating” value (rice; [13]) was 0, the “Rice plant response rating” value (rice; [14]) was 0 and the “Ducksalad plant response rating” value (duck salad; [11]) was 0. For the same molecule, the “Plant response rating, Ducksalad” value (duck salad; [12]) was 0, the “Ducksalad plant response rating” value (duck salad; [13]) was 0 and the “Ducksalad plant response rating” value (duck salad; [14]) was 0. For the same molecule, the “Plant response rating, C. purslane” value (common pursiane; [15]) was 0, the “Plant response rating, C. purslane” value (common pursiane; [16]) was 0 and the “Plant response rating, C. purslane” value (common pursiane; [17]) was 0. For the same molecule, the “Plant response rating, C. purslane” value (common pursiane; [18]) was 0, the “Plant response rating, C. purslane” value (common pursiane; Rate 250 g/ha) was 0 and the “Plant response rating, C. purslane” value (common pursiane; Rate 500 g/ha) was 0. For the same molecule, the “Plant response rating, Goosegrass” value (goosegrass; [15]) was 0, the “Plant response rating, Goosegrass” value (goosegrass; [16]) was 30 and the “Plant response rating, Goosegrass” value (goosegrass; [17]) was 65. The “Plant response rating, Goosegrass” value (goosegrass; [18]) was 85, the “Plant response rating, Goosegrass” value (goosegrass; Rate 250 g/ha) was 98 and the “Plant response rating, Goosegrass” value (goosegrass; Rate 500 g/ha) was 100. For the same molecule, the “Plant response rating, Purple nutsedge” value (purple nutsedge; [15]) was 0, the “Plant response rating, Purple nutsedge” value (purple nutsedge; [16]) was 0 and the “Purple nutsedge plant response rating” value (purple nutsedge; [17]) was 0. The “Purple nutsedge plant response rating” value (purple nutsedge; [18]) was 0, the “Plant response rating, Purple nutsedge” value (purple nutsedge; Rate 250 g/ha) was 0 and the “Plant response rating, Purple nutsedge” value (purple nutsedge; Rate 500 g/ha) was 10. The “Plant response rating, Sandbur” value (sandbur; [15]) was 0, the “Plant response rating, Sandbur” value (sandbur; [16]) was 0 and the “Sandbur plant response rating” value (sandbur; [17]) was 0. For the same molecule, the “Sandbur plant response rating” value (sandbur; [18]) was 0, the “Plant response rating, Sandbur” value (sandbur; Rate 250 g/ha) was 75 and the “Plant response rating, Sandbur” value (sandbur; Rate 500 g/ha) was 100. For the same molecule, the “Plant response rating, Wheat (winter)” value (winter wheat [1]; Rate 250 g/ha, 0 to 100 scale (0 no effect, 100 complete control)) was 0, the “Plant response rating, Wheat (winter)” value (winter wheat [1]; Rate 1000 g/ha, 0 to 100 scale, 0 is no effect and 100 is complete control) was 10 and the “Plant response rating, Wheat (winter)” value (winter wheat [1]; Rate 500 g/ha, 0 to 100 scale, 0 no effect, 100 complete control) was 0. The “Plant response rating, Blackgrass” value (blackgrass; Rate 250 g/ha, 0 to 100 scale) was 30, the “Plant response rating, Blackgrass” value (blackgrass; [19]) was 50 and the “Plant response rating, Blackgrass” value (blackgrass; [20]) was 70. The “Plant response rating, Green foxtail” value (green foxtail; Rate 250 g/ha, 0 to 100 scale) was 70, the “Plant response rating, Green foxtail” value (green foxtail; [19]) was 70 and the “Plant response rating, Green foxtail” value (green foxtail; [20]) was 100. The “Plant response rating, I. Ryegrass” value (Italian ryegrass; Rate 250 g/ha, 0 to 100 scale) was 50, the “Plant response rating, I. Ryegrass” value (Italian ryegrass; [19]) was 50 and the “Plant response rating, I. Ryegrass” value (Italian ryegrass; [20]) was 70. For the same molecule, the “Plant response rating, Wheat (winter)” value (winter wheat [2]; Rate 250 g/ha, 0 to 100 scale) was 20, the “Plant response rating, Wheat (winter)” value (winter wheat [2]; [19]) was 30 and the “Plant response rating, Wheat (winter)” value (winter wheat [2]; [20]) was 30. For the same molecule, the “Plant response rating, Wild oat” value (wild oat; Rate 500 g/ha) was 50, the “Plant response rating, Wild oat” value (wild oat; Rate 1000 g/ha) was 70 and the “Plant response rating, Barley (winter)” value (winter barley; Rate 250 g/ha, 0 to 100 scale) was 30. The “Plant response rating, Barley (winter)” value (winter barley; [19]) was 40 and the “Plant response rating, Barley (winter)” value (winter barley; [20]) was 50.
